Source: the NIST ThermoML archive (doi:10.1021/je3004645)

Conditions: for electrical conductivity / mass density / viscosity: 101.33 kPa, Liquid; for electrical conductivity: Alternating current cell with electrodes; for mass density: Pycnometric method; for viscosity: Capillary tube (Ostwald / Ubbelohde) method; for Triple point temperature / Glass transition temperature: DTA

CCCC[n+]1ccc(C)cc1.O=S(=O)([N-]S(=O)(=O)C(F)(F)F)C(F)(F)F
Conditions | Glass transition temperature [°C] | Triple point temperature [K] | electrical conductivity [S/m] | mass density [kg/m3] | viscosity [mPa·s]
– | -78 | – | – | – | –
278.15 K | – | – | 0.124 | – | –
283.15 K | – | – | 0.166 | 1432.8 | –
288.15 K | – | – | 0.215 | 1428.4 | –
293.15 K | – | – | 0.273 | 1423.4 | –
298.15 K | – | – | 0.341 | 1418.7 | 55.14
303.15 K | – | – | 0.419 | 1414 | 44.2
308.15 K | – | – | 0.509 | 1409.3 | 35.85
313.15 K | – | – | 0.6 | 1404.7 | 29.61
318.15 K | – | – | 0.702 | 1400.2 | 24.77
323.15 K | – | – | 0.817 | 1395.8 | 20.85
328.15 K | – | – | 0.941 | 1391.3 | 17.86
333.15 K | – | – | 1.07 | 1386.9 | 15.37
338.15 K | – | – | 1.21 | 1382.5 | 13.42
343.15 K | – | – | – | – | 11.65
348.15 K | – | – | – | – | 10.15
353.15 K | – | – | – | – | 8.89
358.15 K | – | – | – | – | 7.94
Crystal 1 | – | 292.4 | – | – | –
Crystal 2 | – | 242.2 | – | – | –
Crystal 3 | – | 235.8 | – | – | –

CC[n+]1ccc(C)cc1.O=S(=O)([N-]S(=O)(=O)C(F)(F)F)C(F)(F)F
Conditions | Glass transition temperature [°C] | Triple point temperature [K] | electrical conductivity [S/m] | mass density [kg/m3] | viscosity [mPa·s]
– | -74.5 | – | – | – | –
283.15 K | – | – | 0.424 | 1505.2 | –
288.15 K | – | – | 0.525 | 1501 | –
293.15 K | – | – | 0.638 | 1496.1 | –
298.15 K | – | – | 0.763 | 1492 | 32.75
303.15 K | – | – | 0.901 | 1487.7 | 27.31
308.15 K | – | – | 1.05 | 1483 | 23.1
313.15 K | – | – | 1.21 | 1478.3 | 19.69
318.15 K | – | – | 1.38 | 1473.4 | 16.95
323.15 K | – | – | 1.55 | 1468.8 | 14.66
328.15 K | – | – | 1.75 | 1464.4 | 12.85
333.15 K | – | – | 1.96 | 1459.9 | 11.34
338.15 K | – | – | 2.17 | 1455.1 | 10.1
343.15 K | – | – | – | – | 9.07
348.15 K | – | – | – | – | 8.19
353.15 K | – | – | – | – | 7.43
358.15 K | – | – | – | – | 6.76
363.15 K | – | – | – | – | 6.19
Crystal 1 | – | 291 | – | – | –
Crystal 2 | – | 278.2 | – | – | –
